Our source for the EC50, AC50 and CC50 values is ChEMBL document CHEMBL1201862, “PubChem BioAssay data set” (2004).

SMILES strings stand for the structures. Where a name gives a salt, the structure may show the parent alone. Activity calls are given as the source filed them. For most assays here, no stated cut-off is given here; in the data, actives have a measured EC50 and inactives only a lower limit.

The nature of assay [1]: Trypanosoma cruzi growth suppression in host cells – NIH3T3 host cells, beta-gal luminescence, confirmation (AID 2044).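 Further: intracellular parasites grown in NIH/3T3 mouse fibroblasts as host cells; luminescent beta-galactosidase reporter signal from transgenic T. cruzi replicating inside host cells; inhibitors lower the luminescence signal.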 The class given is functional, cell-based.
Assay [2] can be described thus: NIH3T3 cell viability loss – ATP luminescence, mouse fibroblasts, counter-screen, dose response (AID 2010).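 Further: cells exposed to compound for about 90 hours before reading.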 The class given is functional, cell-based. In general terms: Counterscreens check selectivity or assay interference.
Assay [3] can be described thus: Luminescence Cell-Based Dose Retest to Confirm Inhibitors of Cancer Stem Cells. [Related pubchem assays (depositor defined):AID2717, AID2721]. The class given is functional. The conditions noted are these: Homo sapiens.
Assay [4] can be described thus: NIH-3T3 fibroblast cytotoxicity, dose response, cytotoxicity control, cell-based, fluorescence, Alamar Blue, secondary assay (AID 2327).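 Further: NIH-3T3 mouse fibroblasts cultured with fluconazole at 8 µg/mL.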 The class given is functional. Background: Alamar Blue is a resazurin reagent that responds to reducing activity.
The nature of assay [5]: fluconazole-exposed Candida albicans growth modulators – fluorescence, retest, confirmation (AID 2467). The class given is functional, cell-based.
Assay [6] in a line: viability of uninfected HEp-2 cells – cell-based, HTS, cytotoxicity control for RSV inhibitor project, dose response (AID 2410). The class given is functional. The conditions noted are these: human respiratory syncytial virus.
Assay [7] addresses T1, Heat shock factor protein 1 (Mus musculus, UniProt P38532).
T1 sequence (P38532 whole entry): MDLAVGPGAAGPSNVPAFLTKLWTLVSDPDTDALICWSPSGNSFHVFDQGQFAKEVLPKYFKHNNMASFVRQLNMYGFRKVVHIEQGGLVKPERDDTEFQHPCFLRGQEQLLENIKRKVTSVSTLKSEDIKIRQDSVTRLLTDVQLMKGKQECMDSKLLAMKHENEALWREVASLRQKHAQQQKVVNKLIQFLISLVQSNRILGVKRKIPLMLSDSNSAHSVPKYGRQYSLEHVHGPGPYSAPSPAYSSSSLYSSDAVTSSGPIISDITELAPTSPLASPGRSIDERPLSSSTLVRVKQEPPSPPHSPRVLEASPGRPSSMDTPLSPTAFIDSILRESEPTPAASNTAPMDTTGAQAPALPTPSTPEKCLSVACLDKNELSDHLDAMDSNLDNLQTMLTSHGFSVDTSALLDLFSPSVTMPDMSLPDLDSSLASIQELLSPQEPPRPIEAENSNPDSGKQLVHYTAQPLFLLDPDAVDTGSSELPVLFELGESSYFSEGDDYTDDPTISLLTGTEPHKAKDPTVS
Kind of assay: decrease of HSF1-responsive luciferase luminescence – cell-based, NIH3T3, dose retest, confirmation (AID 2382).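 Further: NIH3T3 fibroblasts with HSF1-driven luciferase reporter stressed by proteasome inhibitor MG132; luminescence from HSF1-driven luciferase expression after 8 hours of MG132 stress.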 The class given is functional.

Assay [8] relates to Streptococcus sp. 'group A'. In words: Streptococcus pyogenes SK(-)GAS viability under kanamycin – luminescence, BacTiterGlo, confirmation, counter-screen for streptokinase expression inhibitor project, dose response (AID 1900). The class given is functional, organism-based.
The subject of assay [9] is Streptococcus. Kind of assay: GAS UMAA2166 growth inhibition – luminescence, BacTiterGlo, counter-screen for streptokinase expression inhibitor project, dose response (AID 1915).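 Further: potency for reduction of bacterial viability or growth.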 The class given is functional, organism-based.
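Wherever AC50 is given: cells exposed to compound for roughly 70 hours or longer before luminescence read.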

For orientation: EC50 means the concentration at which the effect is half-maximal. For the molecule `O=C(c1ccc([N+](=O)[O-])s1)N1CCN(c2ccccc2)CC1`, the figures for the EC50 in [1] and in assay [2] were 0.808 µM (active) and > 60 µM (not active), respectively.

With `CCN(CC)S(=O)(=O)c1ccc(N2CCN(C)CC2)c(NC(=O)COc2ccc(F)cc2Cl)c1`, the results for the EC50 in [1] and in [2] were 0.252 µM (active) and > 60 µM (not active), respectively.

The term AC50 denotes the midpoint of the concentration-response curve, whichever way the signal moves. Turning to `Cc1cc(C)c2nc(O)c(CN(Cc3cccs3)C(S)=NCc3ccco3)cc2c1`, in [3], the AC50 was 61.4 µM (active).

In the case of `Cc1ccc(NC(=O)NC2CCCCCCC2)c(C)c1`, the EC50 was 19.6 µM (inconclusive) in [4] and > 38 µM (not active) in [5].

As to `CC(Oc1ccc(Br)cc1)C(=O)NC1CCN(Cc2ccccc2)CC1` (stereo not given), the EC50 in [1] is 0.579 µM (active); in assay [2], > 60 µM (not active).

With `Cc1ccc(/C=C/C(=O)NCCc2ccccc2)o1`, the AC50 in assay [3] was > 195 µM (inactive).

Take `C=CCOc1c(Cl)cc(CNc2ccc(C)c(Cl)c2)cc1OC`: the EC50 is 2.75 µM (active) in [1] and 0.491 µM (active) in assay [2].

What is called CC50 is the concentration giving 50% cytotoxicity. For `CCOC(=O)C(O)(c1ccc(NC(=O)c2ccc(Cl)c(Cl)c2)cc1)C(F)(F)F` (stereo not given), the CC50 in assay [6] was 20.9 µM (active).

In the case of `CCOC(=O)c1cnc(SC)nc1Oc1cccc(NS(=O)(=O)c2ccccc2)c1`, the EC50 in assay [1] is 1.64 µM (active); in assay [2], > 60 µM (not active).

On to `CC(=S)/C=C1\Sc2ccccc2N1C`, for which the EC50 in assay [4] was > 150 µM (inactive); in assay [1], 0.739 µM (active); in assay [5] it was 1.9 µM (active); in assay [2], > 60 µM (not active).

In the case of `O=C(NC1CCCCC1)C1CCN(c2nccs2)CC1`, the EC50 in assay [7] is > 195 µM (not active).

`Cc1ccc(C)c(N2CCN(C(=O)c3cc(S(=O)(=O)N4CCCC4)cn3C)CC2)c1`: the 50% effective concentration (EC50) in assay [7] was > 195 µM (not active).

With `Cc1cccc(CN2C(=O)[C@@H]3Cc4c([nH]c5ccccc45)C(C)(C)N3C2=O)c1`, the AC50 in assay [3] was 11.9 µM (active).

For the molecule `Cc1nnc(-c2cnn(-c3ccccc3)c2N)n1Cc1cccc(C(F)(F)F)c1`, the EC50 in assay [7] is > 195 µM (not active).

`CCC(=O)N1CCN(c2cc(N3CCN(C)CC3)c(F)cc2[N+](=O)[O-])CC1`: the EC50 in assay [1] is 0.765 µM (active); in assay [2], > 60 µM (not active).

For `Cc1cc(C)nc(N=C(NCc2ccc3c(c2)OCO3)NC(=O)Nc2ccccc2)n1`, the EC50 was > 150 µM (inactive) in [4] and > 38 µM (not active) in assay [5].

As to `CCOc1ccccc1CN1CCN(CC2=Cc3cc(OC)ccc3OC2)CC1CCO` (stereo not given), the EC50 in [1] is 1.29 µM (active); in assay [2], > 60 µM (not active).

For `Cc1ccc(SCCN=C(S)Nc2ccc(C)cc2C)cc1`, the EC50 was 2.2 µM (active) in assay [1] and > 60 µM (not active) in [2].

`CC(=O)Nc1ccc(S(=O)(=O)NCc2ccc(C(=O)NCc3ccc4c(c3)OCO4)cc2)cc1`: the EC50 in assay [7] is reported as > 195 µM (not active).

Consider `COc1cccc(-c2nc(CCl)cs2)c1`, for which the results for the EC50 in [1] and in assay [2] were 3.25 µM (active) and > 60 µM (not active), respectively.

Turning to `COc1cc(NS(=O)(=O)c2ccc(NC(=S)NC(=O)/C=C/c3ccc(OC)c(OC)c3)cc2)ncn1`, the EC50 in [7] was > 195 µM (not active).

`O=C(c1ccc(C(=O)N2CCN(c3ccccc3F)CC2)nc1)N1CCN(c2ccccc2F)CC1`: the EC50 in assay [4] was > 160 µM (inactive); in assay [5], > 38 µM (not active).

Consider `O=C(Nc1ccc2c(c1)OCO2)c1ccc(COc2ccc3c(c2)CCC3)o1`, for which the AC50 in assay [3] is 3.1 µM (active).

With `Cc1ccsc1/C=C1\C(=O)NC(=S)N(C)C1=O`, the EC50 in assay [7] was > 195 µM (not active).

On to `COc1ccc(Br)c2oc(SC)cc(=O)c12`, for which the CC50 in assay [6] is > 50 µM (active).

Take `O=C(NCc1ccccc1)C1CCCN(S(=O)(=O)c2cccc3nsnc23)C1` (stereo not given): in assay [7], the EC50 is > 195 µM (not active).

In the case of `COc1ccc(NC(=O)CN2C(=O)COc3ccc(S(=O)(=O)N4CCOCC4)cc32)c(OC)c1`, the EC50 in assay [7] is recorded as > 195 µM (not active).

Turning to `O=C(NCc1ccccc1)N1CCC(CO)(Cc2cccc(F)c2)CC1`, in [7], the EC50 is > 195 µM (not active).

Regarding `Cc1cc(NC(=O)CSc2nnc(C)n2C)no1`, the EC50 in assay [7] is > 195 µM (not active).

In the case of `Cc1nn(-c2ccccc2)c(Cl)c1/C=C1\C(=O)N(C)C(=S)N1C`, the CC50 in assay [6] is 26.6 µM (active).

In the case of `Cc1nn(CC(=O)NCCCc2ccccc2)c(C)c1[N+](=O)[O-]`, the EC50 in assay [4] was > 150 µM (inactive).

With `CC(=O)Oc1c(Cl)cc(Cl)cc1/C=C/c1ccc2ccccc2n1`, the AC50 in assay [3] was 1.81 µM (active).

Take `O=C(Nc1ccc(Cl)cc1)N1CCCN(c2ccc(C(F)(F)F)cc2[N+](=O)[O-])CC1`: in assay [3], the AC50 was 4.79 µM (active).

On to `COc1ccc(-n2nc(C(=O)NCC(=O)NCc3ccccc3OC)c3ccccc3c2=O)c(OC)c1`, for which the EC50 in assay [7] was > 195 µM (not active).

Consider `COc1ccc(S(=O)(=O)NCC(c2cccnc2)N2CCN(Cc3ccccc3)CC2)cc1` (stereo not given), for which the EC50 in assay [1] was 1.58 µM (active); in [2], > 60 µM (not active).

Consider `CN1CCN(C(=O)CCc2ccc(S(=O)(=O)NC3CCCCC3)cc2)CC1`, for which the figures for the EC50 in assay [1] and in assay [2] were 0.141 µM (active) and > 60 µM (not active), respectively.

Regarding `COc1ccccc1-n1c(O)cc(=O)nc1SCC(=O)Nc1ccc(Br)cc1`, the figures for the concentration for a half-maximal effect (EC50) in assay [8] and in assay [9] were 6.68 µM (active) and 22.6 µM (active), respectively.

For `Cc1sc2ncnc(N3CCC(C(=O)Nc4nc(-c5cccs5)cs4)CC3)c2c1C`, the figures for the EC50 in assay [7], in [1] and in [2] were 1.07 µM (active), 1.6 µM (active) and > 60 µM (not active), respectively.

In the case of `O=C(Nc1ccc(Br)cn1)c1cccc(-c2cc3ccccc3oc2=O)c1`, the AC50 in [3] was 8.81 µM (active).

Take `CNC(=O)c1ccc2c(c1)nnn2C`: the EC50 in assay [4] was 58.7 µM (active); in [5], > 38 µM (not active).

In the case of `c1ccc2c(c1)OCC(c1csc3ncnc(N4CCCCC4)c13)O2` (stereo not given), in assay [6], the CC50 was 16.8 µM (active).

Turning to `O=C(O)/C=C\C(=O)Nc1ccc(OCc2ccccc2)cc1`, the EC50 in [7] is 31 µM (active).

Consider `O=C(Nc1ccc(Cl)c([N+](=O)[O-])c1)c1ccc(NCCCN2CCOCC2)c([N+](=O)[O-])c1`, for which the EC50 is 0.963 µM (active) in assay [1] and > 60 µM (not active) in assay [2].

On to `NS(=O)(=O)c1ccc(CCNCC#Cc2ccccc2)cc1`, for which, in assay [7], the EC50 is listed as > 195 µM (not active).

As for `COc1cccc(CN(C(=O)Cc2c[nH]c3ccccc23)C(C(=O)NC2CCCCC2)c2cccs2)c1` (stereo not given), the EC50 in assay [1] was 1.98 µM (active); in [2], > 60 µM (not active).

As to `CCN=C(S)NNC(=O)c1cc(-c2cccc(C)c2)nc2ccccc12`, the EC50 is 20.2 µM (inconclusive) in [4] and 2.5 µM (active) in assay [5].

For the molecule `O=C(NC(=S)NCCc1ccccc1)C1CCCCC1`, in [3], the AC50 is 10.6 µM (active).

Consider `CCN(c1ccccc1)S(=O)(=O)c1cccc(C(=O)NCC(c2cccs2)N2CCOCC2)c1` (stereo not given), for which the AC50 in [3] was > 195 µM (inactive).

Regarding `COC(=O)c1cc(=O)n(Cc2cccs2)/c(=N/c2ccc(F)cc2)s1`, in [3], the AC50 was 3.81 µM (active).

For `Cc1[nH]n(-c2cccc3ccccc23)c(=O)c1/C=N/NC(=O)c1cccc([N+](=O)[O-])c1`, the EC50 in [4] was 12.1 µM (active); in assay [5], > 38 µM (not active); in assay [8] it was 2.98 µM (active); in [9], 7.09 µM (active).

With `CCCCC1SC(N/N=C/c2ccco2)=NC1=O` (stereo not given), the values for the EC50 in [4] and in assay [5] were > 150 µM (inactive) and 5.08 µM (active), respectively.

Take `CO/N=C/c1ccc(N2CCN(C(=O)c3ccc(C)cc3)CC2)c([N+](=O)[O-])c1`: the EC50 in assay [4] was > 160 µM (inactive); in [5], > 38 µM (not active).

For `CNC(=S)N/N=C/c1ccc(-c2ccc(Cl)c([N+](=O)[O-])c2)o1`, the values for the EC50 in assay [4] and in [5] were > 150 µM (inconclusive) and > 38 µM (not active), respectively.

Regarding `C/C(=N\NC(=O)c1nn(C)c(C)c1Br)c1ccc(NC(=O)C2CCCC2)cc1`, the results for the EC50 in assay [4] and in assay [5] were 34.4 µM (active) and > 38 µM (not active), respectively.

`NC(=O)c1c(NC(=O)c2ccncc2)sc2c1CCCC2`: the EC50 is > 150 µM (inactive) in assay [4] and 2.12 µM (active) in assay [5].

Turning to `C[C@@H](O)[C@H]1C(=O)N2C(C(=O)O)=C(S[C@@H]3CN[C@H](C(=O)N(C)C)C3)[C@H](C)[C@H]12` [MEROPENEM], the values for the EC50 in assay [8] and in [9] were 0.153 µM (active) and 1.15 µM (active), respectively.

`CCN(CC)CCOC(=O)c1ccc(N)cc1` [PROCAINE HYDROCHLORIDE]: in assay [7], the EC50 is given as > 195 µM (not active).
